Assay results from US20020040139A1, “INTRANASAL FORMULATIONS FOR TREATING SEXUAL DISORDERS” (priority 1998, published 2002).
Where a name gives a salt, the structure may show the parent alone.

What was measured:
[1] = Plasma levels in dogs after intranasal versus oral dosing; type: in vivo
Protocol: The effectiveness of the intranasal formulations of the present invention were evaluated in dogs. Four fasted dogs were lightly anaesthetised, each received 5 mg of the cGMP-PDE5 inhibitor in both nostrils. The drug was administered both as a powder and as a solution. Plasma levels of the active agent were measured and compared with plasma levels obtained when the dogs were previously orally dosed with the agent.
Thus a solution dose of 0.7 mg/kg of sildenafil mesylate administered by the intranasal route to four dogs gave a mean peak blood plasma levels of 407 ng/ml after a period of 5 minutes.

[2] = Aqueous solubility of sildenafil mesylate; type: physicochemical; conditions: no solubility enhancing agent
Protocol: Preferred as solubility enhancing agents are caffeine (preferably at a concentration of from 1.0 to 2.5% weight/vol); nicotinamide (preferably 3.0 to 20.0% weight/vol); vanillin (preferably 0.5 to 2.5% weight/vol); and benzyl alcohol (preferably 0.5 to 2.5% weight/vol). A combination of nicotinamide and vanillin is also preferred. By using such solubility enhancing agents, it is possible to increase the solubility of sildenafil mesylate in water from approximately 60 mg/ml to in excess of 100 mg/ml. This allows a more concentrated solution to be administered facilitating a rapid onset of action and reducing irritancy. One particular and preferred formulation comprises sildenafil mesylate 100 mg/ml and caffeine 15 mg/ml in a buffered aqueous solution. The pH of the solution is preferably adjusted to pH 3-5, preferably to pH 4.2 by the addition of a base e.g. sodium hydroxide.

[3] = Plasma levels in human volunteers after intranasal administration; type: in vivo; conditions: man
[4] = four dogs, intranasal route, solution dose 0.7 mg/kg

**Q.** What does the source list for `CCCc1nn(C)c2c(=O)[nH]c(-c3cc(S(=O)(=O)N4CCN(C)CC4)ccc3OCC)nc12` [sildenafil citrate, reference compound]?
**A.** mean peak blood plasma level ([1]; dog, in vivo, po, 1.4 mg/kg): 204 ng/mL; time of mean peak blood plasma level ([1]; dog, in vivo, po, 1.4 mg/kg): 136 min

**Q.** Which “blood plasma levels after intranasal versus oral administration” value ([1]; dogs, intranasal powder and solution, 5 mg in both nostrils, compared with oral dosing) does the source give for “5-[2-ethoxy-5-(4-methylpiperazin-1-ylsulphonyl)phenyl]-1,6-dihydro-1-methyl-3-propylpyrazolo[4,3-d]pyrimidin-7-one)methanesulphonate salt [sildenafil mesylate]” here?
**A.** The value was “particularly effective”.

**Q.** And the “mean peak blood plasma level” value [1, 4]?
**A.** Its value is 407 ng/mL.

**Q.** And the “time of mean peak blood plasma level” value [1, 4]?
**A.** Its value is 5 min.

**Q.** What about the solubility in water [2] of the same molecule?
**A.** Its solubility in water is “approximately 60 mg/ml”.

**Q.** And the “blood plasma levels of sildenafil versus oral dosing” value [3]?
**A.** Its value is “comparable with oral dosing”.

**Q.** And the “time of peak blood plasma levels after administration” value [3]?
**A.** The value was 5 to 15 min.
